Format in all cases: cell-based
The subject of experiment [1] is elastin. As to the kind of experiment: Promotion of elastin production in a three-dimensional human skin model (TESTSKIN LSE-high). To be noted: concentration 0.05% in dipropylene glycol, 2 x 24 hours. From the text:
(§1) Three-dimensional human skin models are widely used in safety evaluations and effectiveness evaluations as pseudo human skins. In this evaluation, TESTSKIN (LSE-high) (manufactured by Toyobo) was used as a three-dimensional human skin model, and cultured in accordance with the protocol specified in the attached document. Silybum marianum extract containing 70% silymarin (manufactured by Indina), soybean lecithin (manufactured by Wako Pure Chemical Industries) and retinoic acid (all-trans-retinoic acid manufactured by Wako Pure Chemical Industries) were dissolved to respective concentrations in dipropylene glycol (manufactured by Wako Pure Chemical Industries). […]
(§2) Next, 60 μl of each tested substance was added to tissues in an assay ring and the tissues were cultured for 24 hours. […] Protein in the sample was determined using a DC protein assay kit (manufactured by Bio-Rad Laboratories) based on the Lowry method (Non-patent Literature 11), and 20 mM Tris-HCl (pH 7.5) was added to achieve 2 μg/μl. […]
In the same manner as described in the aforementioned evaluation of the property to promote type I collagen production in a three-dimensional human skin model, the property to promote elastin production was evaluated using a three-dimensional human skin model.

In experiment [2] the test system is type I collagen. Briefly: Promotion of type I collagen production in normal human skin fibroblast cells (western blotting, image analysis). To be noted: NFB cells, 24 hours. The protocol:
(§3) Each compound was dissolved in DMSO to produce a stock solution, and an appropriate amount of each stock solution was added to a culture solution and applied to cells. By following the same procedure, a stock solution was prepared by dissolving silymarin (silymarin group manufactured by Sigma-Aldrich) in the aforementioned DMSO, and an appropriate amount of the stock solution was added to a culture solution to check the effect of adding silymarin.
(§4) Normal human skin fibroblast cells (hereinafter referred to as “NFB”), provided as CCD1059 (purchased from Dainippon Pharmaceutical), were cultured in a skin fibroblast cell culture medium (FGM manufactured by Sanko Junyaku) at 37° C. in a 5% CO2 incubator. FGM was prepared by adding a human skin fibroblast cell growth factor (1 μg/ml), insulin ([…]), gentamycin (50 μg/ml) and amphotericin B (50 μg/ml) to a base fibroblast cell culture medium. This test used cells whose passage number was 3 to 7. […]
(§5) Protein in the sample was separated by SDS-PAGE and transferred to a nitrocellulose membrane. […] The obtained substance was washed, and then detected using ECL plus western blotting detection reagent (manufactured by Amersham Biosciences). The detected band was scanned using an image scanner (manufactured by Amersham Biosciences) and analyzed using image master software to produce numerical data.

The subject of experiment [3] is elastin. As to the kind of experiment: Promotion of elastin production in normal human skin fibroblast cells (western blotting, image analysis). To be noted: NFB cells, 24 hours. How it is done:
as §3, §4, §5
On the technique in general: Immunoblotting shows a protein as a band on a membrane.

In experiment [4] the test system is type I collagen. Briefly: Promotion of type I collagen production in a three-dimensional human skin model (TESTSKIN LSE-high). To be noted: concentration 0.05% in dipropylene glycol, 2 x 24 hours.
Source text: as §1, §2
The obtained sample was used to evaluate the property to promote type I collagen production using the western blotting method. […] The obtained substance was washed, and then detected using ECL plus western blotting detection reagent (manufactured by Amersham Biosciences). […]

SMILES strings stand for the structures.

For `CC1=C(/C=C/C(C)=C/C=C/C(C)=C/C(=O)O)C(C)(C)CCC1` [Retinoic acid, all-trans-retinoic acid], the “Relative expression level (full-length elastin)” value in the experiment on elastin [1] came out at 3.3. For the same compound, the “Ratio to untreated control (full-length type I collagen)” value was determined as 2.0 with type I collagen [2] (treated concentration 250 nM) and 1.4 in the experiment on type I collagen [2] (treated concentration 500 nM). Moreover, the entries for the “Ratio to untreated control (full-length elastin)” value in the experiment with elastin [3] (treated concentration 250 nM) and in the experiment on elastin [3] (treated concentration 500 nM) were 2.8 and 1.4, respectively. In addition, in the experiment on type I collagen [4], the “Relative expression level (full-length type I collagen)” value came to 2.0.

These data come from US20060233738A1, “Composition for promoting production of type 1 collagen and/or elastin” (priority 2003, published 2006).
